Laboratory results taken from patent publication US12448388B2, “PRMT5 inhibitors and uses thereof” (Gilead Sciences, Inc., priority 2023, dated 2025).

Key:
Type in all cases: cell-based
[1] = system: LU99 (lung, giant cell carcinoma; MTAP-Deleted); experiment: In vitro cell viability assay (CellTiter-Glo, 9 days), LU99; conditions: Homo sapiens, Lu-99, 216 h, 9-day treatment
Procedure: (§1) Some Compounds of the Disclosure were tested in Calu-6 (Vendor: ATCC; Cat #HTB-56; Description: lung, adenocarcinoma), LU99 (Vendor: JCRB; Cat #JCRB0080; Description: lung, giant cell carcinoma), SW780 (Vendor: ATCC; Cat #CRL-2169; Description: bladder, urothelial carcinoma), and BxPC-3 (Vendor: ATCC; Cat #CRL-1687; Description: pancreas, adenocarcinoma) cellular viability assays according to the general protocol. Seeded cells into 96-well plate and incubated overnight. Seeded an additional 10 wells per cell line in an additional 96-well plate for assessing Time Zero luminescence and incubated overnight. To treatment plates, added compounds into each well using Tecan D300e dispenser (nine three-fold dilutions starting at […]) and incubated for 9 days. Time Zero (no compound treatment, luminescence assessed on day 1) and 9-day treatment (luminescence assessed on day 10) plates were assessed using the same CellTiter-Glo® substrate protocol. Thawed CellTiter-Glo® Buffer and lyophilized CellTiter-Glo® substrate and equilibrated to room temperature prior to use. Transferred 100 ml CellTiter-Glo® Buffer into amber bottle containing CellTiter-Glo® substrate to reconstitute the lyophilized enzyme/substrate mixture. For Time Zero and 9-day treatment plates, removed all plating media. Added 100 μl fresh media/well. Added 100 μl CellTiter-Glo® Reagent per well. Mixed contents for 10 min on an orbital shaker to lyse cells. Recorded luminescence with Perkin Elmer Envision 2105 machine. Analyzed the data with GraphPad software.

[2] = system: Calu-6 (lung, adenocarcinoma; MTAP-WT); experiment: In vitro cell viability assay (CellTiter-Glo, 9 days), Calu-6; conditions: Homo sapiens, Calu-6, 216 h, 9-day treatment
Procedure: as §1

hERG ion channel = target: T1, hERG ion channel (Homo sapiens, UniProt Q12809); experiment: hERG assay (automated patch clamp, QPatch HT); conditions: HEK293 hERG, * = accurate hERG measurement may be limited by compound solubility
T1 construct: host or cells: HEK293
T1 sequence (Q12809 whole entry): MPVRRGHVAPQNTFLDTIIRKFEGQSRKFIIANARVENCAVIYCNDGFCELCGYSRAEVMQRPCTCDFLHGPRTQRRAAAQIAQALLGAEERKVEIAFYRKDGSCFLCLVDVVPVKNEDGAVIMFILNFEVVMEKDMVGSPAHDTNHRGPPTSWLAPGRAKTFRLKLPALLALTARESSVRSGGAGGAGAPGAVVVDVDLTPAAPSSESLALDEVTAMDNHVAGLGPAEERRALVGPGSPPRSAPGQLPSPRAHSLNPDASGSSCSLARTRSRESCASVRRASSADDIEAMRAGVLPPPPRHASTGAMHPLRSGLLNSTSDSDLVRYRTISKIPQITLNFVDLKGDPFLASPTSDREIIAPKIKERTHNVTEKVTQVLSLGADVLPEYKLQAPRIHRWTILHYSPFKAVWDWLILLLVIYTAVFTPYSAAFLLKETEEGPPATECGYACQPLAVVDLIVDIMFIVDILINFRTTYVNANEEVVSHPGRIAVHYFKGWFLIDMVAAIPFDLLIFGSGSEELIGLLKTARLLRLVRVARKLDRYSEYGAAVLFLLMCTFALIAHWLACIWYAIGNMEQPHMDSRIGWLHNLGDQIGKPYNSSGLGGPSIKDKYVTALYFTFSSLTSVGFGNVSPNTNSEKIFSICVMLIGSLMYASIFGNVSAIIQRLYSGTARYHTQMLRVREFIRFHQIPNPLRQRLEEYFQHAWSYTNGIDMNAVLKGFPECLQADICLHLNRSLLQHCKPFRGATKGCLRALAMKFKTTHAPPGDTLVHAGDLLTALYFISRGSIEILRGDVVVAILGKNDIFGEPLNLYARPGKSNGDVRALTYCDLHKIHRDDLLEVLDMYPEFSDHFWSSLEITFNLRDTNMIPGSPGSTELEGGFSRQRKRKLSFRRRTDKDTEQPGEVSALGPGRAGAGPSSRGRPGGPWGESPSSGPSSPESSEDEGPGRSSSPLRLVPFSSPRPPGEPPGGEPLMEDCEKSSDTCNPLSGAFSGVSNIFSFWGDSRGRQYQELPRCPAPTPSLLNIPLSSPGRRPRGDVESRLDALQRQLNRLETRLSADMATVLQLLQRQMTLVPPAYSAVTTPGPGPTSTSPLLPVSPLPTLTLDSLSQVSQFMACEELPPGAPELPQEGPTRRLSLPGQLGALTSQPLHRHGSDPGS
Procedure: Cell lines and cell culture: The HEK293 cell line stably expressing the hERG ion channel was provided from Charles River laboratories. Cells were maintained in tissue culture incubators per Charles River Laboratories SOP. Stocks were maintained in cryogenic storage. HEK293 cells were stably transfected with hERG cDNA.
Automated Patch Clamp Procedures: In preparation for a recording session, intracellular solution was loaded into the intracellular compartments of the QPlate and cell suspension was pipetted into the extracellular compartments. After establishment of a whole-cell configuration, membrane currents were recorded using up to 48 parallel patch clamp amplifiers in the QPatch HT® system. The current records were sampled at 2000 Hz and low-pass Bessel filtered at 400 Hz.
Valid whole-cell recordings met the following criteria: • 1. Membrane resistance ≥200 MΩ. • 2. Leak current 25% channel current or subtracted.
hERG Test Procedures: Onset and block of hERG current was measured using a stimulus voltage pattern consisting of a 500 ms prepulse to −40 mV (leakage subtraction), a 2-second activating pulse to +40 mV followed by a 2-second test pulse to −40 mV. The pulse pattern was repeated continuously at 10 s intervals from a holding potential of −80 mV. Peak tail current was measured during the −40 mV test pulse. Leakage current was calculated from the current amplitude evoked by the −40 mV prepulse and subtracted from the total membrane current record.
Data Analysis: Data acquisition and analysis were performed using the QPatch Assay Software (Sophion Bioscience A/S, Denmark). Steady state was defined by the limiting constant rate of change with time (linear time dependence). The steady state before and after test article application were used to calculate the percentage of current inhibited at each concentration. Run down, a time-dependent reduction of current amplitude, may be compensated for in the QPatch Assay Software using standard system tools. Concentration-response data was fit to an equation of the following form: […]
Where [Test] is the concentration of test compound, IC50 is the concentration of the test compound producing half-maximal inhibition, N is the Hill coefficient and % Block is the percentage of current inhibited at each concentration of the test article. Nonlinear least squares fits will be solved with the Solver add-in for Excel 2000 or later (Microsoft, Redmond, WA).

[3] = system: Symmetric Di-methyl Arginine (SDMA) signal (PRMT5 inhibition) in HCT116 MTAP-deleted cells; experiment: Symmetric di-methyl arginine image-based high content screen assay (SDMA assay), HCT116 MTAP-deleted; conditions: for EC50: Homo sapiens, HCT-116, HCT116 MTAP-deleted, class symbols
How it was run: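 HCT116 WT and MTAP-deleted cells (800/well, RPMI 1640 + 10% FBS) treated with compound 3 days at 37 °C; formalin-fixed, stained with anti-SDMA antibody/Alexa 488 plus DAPI. Mean SDMA intensity per DAPI-defined cell imaged; EC50 from 4-parameter logistic fit.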

[4] = HCT116 WT versus HCT116 MTAP-deleted
[5] = HCT116 WT vs HCT116 MTAP-deleted

GI50 [1] [nM] | GI50 [2] [nM] | EC50 selectivity [3, 4] | EC50 [3] [nM] | EC50 selectivity [3, 5] | SMILES | IC50 (hERG ion channel) [nM]
6 | 1260 | – | ≤ 1 | 85 | Nc1nc2cnc(C(=O)N3CCC[C@@H]4Oc5cc(C(F)(F)F)cc(F)c5[C@@H]43)cc2n2cncc12 (single isomer, unassigned) [Fg-53] | 9950
10 | 2510 | – | ≤ 1 | 114 | Nc1nc2cnc(C(=O)N3CCC[C@@H]4Oc5cc(OC(F)(F)F)cc(F)c5[C@@H]43)cc2n2cncc12 (single isomer, unassigned) [Fg-55] | 6200
4 | 2150 | – | – | – | Nc1nc2cc(F)c(C(=O)N3CCC[C@@H]4Oc5cc(C(F)(F)F)ccc5[C@@H]43)cc2n2cncc12 [Ff-104, (4-amino-7-fluoroimidazo[1,5-a]quinoxalin-8-yl)((4aS,9bS)-7-(trifluoromethyl)-3,4,4a,9b-tetrahydrobenzofuro[3,2-b]pyridin-1(2H)-yl)methanone] | 14200
7 | 1550 | 118 | ≤ 1 | – | Nc1nc2cnc(C(=O)N3CCC[C@@H]4Oc5cc(C(F)(F)F)ccc5[C@@H]43)cc2n2cncc12 [Ff-110, (4-aminoimidazo[1,5-a]pyrido[3,4-e]pyrazin-8-yl)((4aS,9bS)-7-(trifluoromethyl)-3,4,4a,9b-tetrahydrobenzofuro[3,2-b]pyridin-1(2H)-yl)methanone] | 8470
17 | 2950 | 135 | ≤ 1 | – | Cc1ncc2c(N)nc3cnc(C(=O)N4CCC[C@@H]5Oc6cc(OC(F)(F)F)ccc6[C@@H]54)cc3n12 [Ff-340, (4-amino-1-methylimidazo[1,5-a]pyrido[3,4-e]pyrazin-8-yl)((4aS,9bS)-7-(trifluoromethoxy)-3,4,4a,9b-tetrahydrobenzofuro[3,2-b]pyridin-1(2H)-yl)methanone] | –
13 | 2440 | 145 | ≤ 1 | – | Nc1nc2cnc(C(=O)N3CCC[C@@H]4Oc5cc(OC(F)(F)F)ccc5[C@@H]43)cc2n2cncc12 [Ff-341, (4-aminoimidazo[1,5-a]pyrido[3,4-e]pyrazin-8-yl)((4aS,9bS)-7-(trifluoromethoxy)-3,4,4a,9b-tetrahydrobenzofuro[3,2-b]pyridin-1(2H)-yl)methanone] | –
– | – | – | ≤ 1 | 121 | Nc1nc2cnc(C(=O)N3CC[C@H]4C[C@@H]3c3ccc(C(F)(F)F)c(F)c3O4)cc2n2cncc12 [Ff-684, (4-aminoimidazo[1,5-a]pyrido[3,4-e]pyrazin-8-yl)((2S,6R)-10-fluoro-9-(trifluoromethyl)-3,4-dihydro-2H-2,6-methanobenzo[b][1,5]oxazocin-5(6H)-yl)methanone] | –
– | – | – | 1 to 5 | 108 | Nc1nc2cnc(C(=O)N3CC[C@H]4C[C@@H]3c3ccc(OC(F)(F)F)cc3O4)cc2n2cncc12 [Ff-685, (4-aminoimidazo[1,5-a]pyrido[3,4-e]pyrazin-8-yl)((2S,6R)-9-(trifluoromethoxy)-3,4-dihydro-2H-2,6-methanobenzo[b][1,5]oxazocin-5(6H)-yl)methanone] | –
– | – | – | ≤ 1 | 87 | [2H]C1([2H])CC[C@@H]2Oc3cc(C(F)(F)F)ccc3[C@@H]2N1C(=O)c1cc2c(cn1)nc(N)c1cncn12 [Fg-60, (4-aminoimidazo[1,5-a]pyrido[3,4-e]pyrazin-8-yl)((4aS,9bS)-7-(trifluoromethyl)-3,4,4a,9b-tetrahydrobenzofuro[3,2-b]pyridin-1(2H)-yl-2,2-d2)methanone] | –

The remaining lines, values behind:

SMILES | GI50 [1] [nM] | GI50 [2] [nM] | EC50 selectivity [3, 4] | EC50 [3] [nM] | EC50 selectivity [3, 5] | IC50 (hERG ion channel) [nM]
C[C@H]1CN(C(=O)c2cc3c(cc2F)nc(N)c2cncn23)[C@H]2c3ccc(C(F)(F)F)cc3C[C@H]2O1 (single isomer, unassigned) [Ff-81] | 19 | > 10000 | – | – | – | 27700
Nc1nc2cc(F)c(C(=O)N3CCO[C@@H]4Cc5cc(C(F)(F)F)ccc5[C@@H]43)cc2n2cncc12 (single isomer, unassigned) [Ff-82] | – | – | – | – | – | > 30000
C[C@@H]1CN(C(=O)c2cc3c(cc2F)nc(N)c2cncn23)[C@H]2c3ccc(OC(F)(F)F)cc3C[C@H]2O1 (single isomer, unassigned) [Ff-183] | 11 | 2150 | 117 | ≤ 1 | – | –
C[C@@H]1CN(C(=O)c2cc3c(cc2F)nc(N)c2cncn23)[C@H]2c3cc(F)c(OC(F)(F)F)cc3C[C@H]2O1 (single isomer, unassigned) [Ff-197] | – | – | – | – | – | 11900
Nc1nc2cnc(C(=O)N3CC[C@H]4C[C@@H]3c3c(F)cc(C(F)(F)F)cc3O4)cc2n2cncc12 (single isomer, unassigned) [Ff-694] | – | – | – | – | – | 16200
Nc1nc2ccc(C(=O)N3CCC[C@@H]4Oc5cc(C(F)(F)F)ccc5[C@@H]43)cc2n2cncc12 [Ff-111, (4-aminoimidazo[1,5-a]quinoxalin-8-yl)((4aS,9bS)-7-(trifluoromethyl)-3,4,4a,9b-tetrahydrobenzofuro[3,2-b]pyridin-1(2H)-yl)methanone] | 8 | > 6400 | 258 | ≤ 1 | – | 6700
Cc1ncn2c1c(N)nc1cnc(C(=O)N3CCC[C@@H]4Oc5cc(C(F)(F)F)ccc5[C@@H]43)cc12 [Ff-499, (4-amino-3-methylimidazo[1,5-a]pyrido[3,4-e]pyrazin-8-yl)((4aS,9bS)-7-(trifluoromethyl)-3,4,4a,9b-tetrahydrobenzofuro[3,2-b]pyridin-1(2H)-yl)methanone] | – | – | – | – | – | 17500
Nc1nc2cnc(C(=O)N3CC4(CC4)C[C@@H]4Oc5cc(C(F)(F)F)ccc5[C@@H]43)cc2n2cncc12 [Ff-648, (4-aminoimidazo[1,5-a]pyrido[3,4-e]pyrazin-8-yl)((4aS,9bS)-7-(trifluoromethyl)-4a,9b-dihydro-2H-spiro[benzofuro[3,2-b]pyridine-3,1′-cyclopropan]-1(4H)-yl)methanone] | 9 | 1660 | – | ≤ 1 | 50 | –
